Reference: patent publication US9227971B2, “Pyrazolo[1,5-a]pyrimidine compounds as mTOR inhibitors” (Merck Sharp & Dohme Corp., priority 2010, dated 2016)
Where two headings read alike, the source gives them in different places.

Experiments:
[1] = tested on: phosphorylated 4E-BP1 Thr37/46 (p4E-BP1 Thr37/46), mTORC1 activity, PC3 cells; experiment: mTOR target engagement assay, immunofluorescent cell-based, p4E-BP1 Thr37/46 readout (mTORC1 activity); settings: read-out: p4E-BP1 Thr37/46 IC50
How it was run: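 Read-out is fluorescence intensity of immunostained p4E-BP1 Thr37/46 in fixed PC3 cells, fitted to a logistic curve for IC50 with DMSO-only wells as top. Cells had been exposed to serial compound dilutions for ninety minutes at 37° C in 5% FBS medium with 0.25% DMSO.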

[2] = tested on: phosphorylated AKT Ser473 (pAKT S473), mTORC2 activity, PC3 cells; experiment: mTOR target engagement assay, immunofluorescent cell-based, pAKT S473 readout (mTORC2 activity)
How it was run: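 After blocking, cells were stained overnight at 4 °C with anti-pAKT S473 antibody, then a fluorescent secondary; inhibition was read as reduced fluorescence intensity.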

[3] = Homo sapiens, PC-3, PC3 cells, compound treatment ninety minutes at 37° C.
[4] = Homo sapiens, PC-3, Table 7-2, PC3 cells
[5] = Homo sapiens, PC-3, Table 7-4, PC3 cells

SMILES	IC50 [1, 3] [nM]	IC50 [2, 3] [nM]	further results
CC(=O)c1c([C@@H]2C[C@H]3CC[C@@H](C2)N3C(=O)c2nnc[nH]2)nc2c(-c3ccc([C@@H](C)O)nc3)cnn2c1N [Compound 7.14, 1-(5-((1R,3s,5S)-8-(4H-1,2,4-triazole-3-carbonyl)-8-azabicyclo[3.2.1]octan-3-yl)-7-amino-3-(6-((R)-1-hydroxyethyl)pyridin-3-yl)pyrazolo[1,5-a]pyrimidin-6-yl)ethanone]	100 to 1000	100 to 1000	–
CC(=O)c1c([C@@H]2C[C@H]3CC[C@@H](C2)N3C(=O)c2cn[nH]c2N)nc2c(-c3ccc(C(C)(C)O)nc3)cnn2c1N [Compound 7.15, 1-(7-amino-5-((1R,3s,5S)-8-(5-amino-1H-pyrazole-4-carbonyl)-8-azabicyclo[3.2.1]octan-3-yl)-3-(6-(2-hydroxypropan-2-yl)pyridin-3-yl)pyrazolo[1,5-a]pyrimidin-6-yl)ethanone]	100 to 1000	100 to 1000	–
CC(=O)c1c([C@@H]2C[C@H]3CC[C@@H](C2)N3C(=O)c2cc[nH]c2)nc2c(-c3ccc(C(C)(C)O)nc3)cnn2c1N [Compound 7.16, 1-(5-((1R,3s,5S)-8-(1H-pyrrole-3-carbonyl)-8-azabicyclo[3.2.1]octan-3-yl)-7-amino-3-(6-(2-hydroxypropan-2-yl)pyridin-3-yl)pyrazolo[1,5-a]pyrimidin-6-yl)ethanone]	100 to 1000	1 to 100	–
CC(=O)c1c([C@@H]2C[C@H]3CC[C@@H](C2)N3C(=O)c2nnc(C)[nH]2)nc2c(-c3ccc(C4(O)CCC4)nc3)cnn2c1N [Compound 7.17, 1-(7-amino-3-(6-(1-hydroxycyclobutyl)pyridin-3-yl)-5-((1R,3s,5S)-8-(3-methyl-1H-1,2,4-triazole-5-carbonyl)-8-azabicyclo[3.2.1]octan-3-yl)pyrazolo[1,5-a]pyrimidin-6-yl)ethanone]	100 to 1000	100 to 1000	–
CC(=O)c1c([C@@H]2C[C@H]3CC[C@@H](C2)N3C(=O)CO)nc2c(-c3ccc(C4(O)CCC4)nc3)cnn2c1N [Compound 7.18, 1-((1R,3s,5S)-3-(6-acetyl-7-amino-3-(6-(1-hydroxycyclobutyl)pyridin-3-yl)pyrazolo[1,5-a]pyrimidin-5-yl)-8-azabicyclo[3.2.1]octan-8-yl)-2-hydroxyethanone]	100 to 1000	100 to 1000	–
CC(=O)c1c([C@@H]2C[C@H]3CC[C@@H](C2)N3C(=O)c2nc[nH]n2)nc2c(-c3ccc(C(C)O)cc3)cnn2c1N (stereo partly drawn) [Compound 7.20, 1-(5-((1R,3s,5S)-8-(1H-1,2,4-triazole-3-carbonyl)-8-azabicyclo[3.2.1]octan-3-yl)-7-amino-3-(4-(1-hydroxyethyl)phenyl)pyrazolo[1,5-a]pyrimidin-6-yl)ethanone]	1 to 100	1 to 100	–
CC(=O)c1c([C@@H]2C[C@H]3CC[C@@H](C2)N3C(=O)c2nnc[nH]2)nc2c(-c3ccc([C@@H](C)O)cc3)cnn2c1N [Compound 7.21, 1-(5-((1R,3s,5S)-8-(4H-1,2,4-triazole-3-carbonyl)-8-azabicyclo[3.2.1]octan-3-yl)-7-amino-3-(4-((R)-1-hydroxyethyl)phenyl)pyrazolo[1,5-a]pyrimidin-6-yl)ethanone]	1 to 100	1 to 100	–
CC(=O)c1c([C@@H]2C[C@H]3CC[C@@H](C2)N3C(=O)c2nnc[nH]2)nc2c(-c3ccc([C@H](C)O)cc3)cnn2c1N [Compound 7.22, 1-(5-((1R,3s,5S)-8-(4H-1,2,4-triazole-3-carbonyl)-8-azabicyclo[3.2.1]octan-3-yl)-7-amino-3-(4-((S)-1-hydroxyethyl)phenyl)pyrazolo[1,5-a]pyrimidin-6-yl)ethanone]	1 to 100	1 to 100	–
CC(=O)c1c([C@@H]2C[C@H]3CC[C@@H](C2)N3C(=O)CO)nc2c(-c3cnc(C(C)(C)O)c(C)c3)cnn2c1N [Compound 7.23, 1-((1R,3s,5S)-3-(6-acetyl-7-amino-3-(6-(2-hydroxypropan-2-yl)-5-methylpyridin-3-yl)pyrazolo[1,5-a]pyrimidin-5-yl)-8-azabicyclo[3.2.1]octan-8-yl)-2-hydroxyethanone]	100 to 1000	100 to 1000	–
CC(=O)c1c([C@@H]2C[C@H]3CC[C@@H](C2)N3C(=O)c2nnc[nH]2)nc2c(-c3cnc(C(C)(C)O)c(C)c3)cnn2c1N [Compound 7.24, 1-(5-((1R,3s,5S)-8-(4H-1,2,4-triazole-3-carbonyl)-8-azabicyclo[3.2.1]octan-3-yl)-7-amino-3-(6-(2-hydroxypropan-2-yl)-5-methylpyridin-3-yl)pyrazolo[1,5-a]pyrimidin-6-yl)ethanone]	1 to 100	1 to 100	–
CCCC(O)c1ccc(-c2cnn3c(N)c(S(C)(=O)=O)c([C@@H]4C[C@H]5CC[C@@H](C4)N5C(=O)c4nnc[nH]4)nc23)cn1 (stereo partly drawn) [Compound 7.25, ((1R,3s,5S)-3-(7-amino-3-(6-(1-hydroxybutyl)pyridin-3-yl)-6-(methylsulfonyl)pyrazolo[1,5-a]pyrimidin-5-yl)-8-azabicyclo[3.2.1]octan-8-yl)(4H-1,2,4-triazol-3-yl)methanone]	–	–	IC50 [1, 4]: 1000 to 10000 nM; IC50 [2, 4]: 1000 to 10000 nM
CCC(O)c1ccc(-c2cnn3c(N)c(S(C)(=O)=O)c([C@@H]4C[C@H]5CC[C@@H](C4)N5C(=O)c4nnc[nH]4)nc23)cn1 (stereo partly drawn) [Compound 7.26, ((1R,3s,5S)-3-(7-amino-3-(6-(1-hydroxypropyl)pyridin-3-yl)-6-(methylsulfonyl)pyrazolo[1,5-a]pyrimidin-5-yl)-8-azabicyclo[3.2.1]octan-8-yl)(4H-1,2,4-triazol-3-yl)methanone]	–	–	IC50 [1, 4]: 100 to 1000 nM; IC50 [2, 4]: 100 to 1000 nM
CC(C)(O)c1ccc(-c2cnn3c(N)c(S(C)(=O)=O)c([C@@H]4C[C@H]5CC[C@@H](C4)N5C(=O)c4nnc[nH]4)nc23)cn1 [Compound 7.27, ((1R,3s,5S)-3-(7-amino-3-(6-(2-hydroxypropan-2-yl)pyridin-3-yl)-6-(methylsulfonyl)pyrazolo[1,5-a]pyrimidin-5-yl)-8-azabicyclo[3.2.1]octan-8-yl)(1H-1,2,4-triazol-5-yl)methanone]	–	–	IC50 [1, 4]: 1 to 100 nM; IC50 [2, 4]: 1 to 100 nM
Cc1n[nH]c(C(=O)N2[C@@H]3CC[C@H]2C[C@H](c2nc4c(-c5ccc(C6(O)CCC6)nc5)cnn4c(N)c2S(C)(=O)=O)C3)n1 [Compound 7.29, ((1R,3s,5S)-3-(7-amino-3-(6-(1-hydroxycyclobutyl)pyridin-3-yl)-6-(methylsulfonyl)pyrazolo[1,5-a]pyrimidin-5-yl)-8-azabicyclo[3.2.1]octan-8-yl)(3-methyl-1H-1,2,4-triazol-5-yl)methanone]	–	–	IC50 ([1]; Table 7-2, PC3 cells): 100 to 1000 nM; IC50 ([2]; Table 7-2, PC3 cells): 100 to 1000 nM
CS(=O)(=O)c1c([C@@H]2C[C@H]3CC[C@@H](C2)N3C(=O)c2cnn[nH]2)nc2c(-c3ccc(C4(O)CCC4)nc3)cnn2c1N [Compound 7.30, ((1R,3s,5S)-3-(7-amino-3-(6-(1-hydroxycyclobutyl)pyridin-3-yl)-6-(methylsulfonyl)pyrazolo[1,5-a]pyrimidin-5-yl)-8-azabicyclo[3.2.1]octan-8-yl)(1H-1,2,3-triazol-5-yl)methanone]	–	–	IC50 ([1]; Table 7-2, PC3 cells): 100 to 1000 nM; IC50 ([2]; Table 7-2, PC3 cells): 100 to 1000 nM
COCCOCc1ccc(-c2cnn3c(N)c(C(C)=O)c([C@@H]4C[C@H]5CC[C@@H](C4)N5C(=O)c4nnc[nH]4)nc23)cn1 [Compound 7.31, 1-(5-((1R,3s,5S)-8-(4H-1,2,4-triazole-3-carbonyl)-8-azabicyclo[3.2.1]octan-3-yl)-7-amino-3-(6-((2-methoxyethoxy)methyl)pyridin-3-yl)pyrazolo[1,5-a]pyrimidin-6-yl)ethanone]	1000 to 10000	1000 to 10000	–
COCCOCc1ccc(-c2cnn3c(N)c(S(C)(=O)=O)c([C@@H]4C[C@H]5CC[C@@H](C4)N5C(=O)c4nnc[nH]4)nc23)cn1 [Compound 7.32, ((1R,3s,5S)-3-(7-amino-3-(6-((2-methoxyethoxy)methyl)pyridin-3-yl)-6-(methylsulfonyl)pyrazolo [1,5-a]pyrimidin-5-yl)-8-azabicyclo[3.2.1]octan-8-yl)(4H-1,2,4-triazol-3-yl)methanone]	1000 to 10000	> 10000	–
CC(=O)c1c([C@@H]2C[C@H]3CC[C@@H](C2)N3C(=O)c2nnc[nH]2)nc2c(-c3ccc([C@@H](C)O)nc3)cnn2c1N [Compound 7.33, 1-(5-((1R,3s,5S)-8-(4H-1,2,4-triazole-3-carbonyl)-8-azabicyclo[3.2.1]octan-3-yl)-7-amino-3-(6-((R)-1-hydroxyethyl)pyridin-3-yl)pyrazolo[1,5-a]pyrimidin-6-yl)ethanone]	–	–	IC50 [1, 5]: 100 to 1000 nM; IC50 [2, 5]: 100 to 1000 nM
CC(=O)c1c([C@@H]2C[C@H]3CC[C@@H](C2)N3C(=O)c2nnc[nH]2)nc2c(-c3ccc([C@H](C)O)nc3)cnn2c1N [Compound 7.34, 1-(5-((1R,3s,5S)-8-(4H-1,2,4-triazole-3-carbonyl)-8-azabicyclo[3.2.1]octan-3-yl)-7-amino-3-(6-((S)-1-hydroxyethyl)pyridin-3-yl)pyrazolo[1,5-a]pyrimidin-6-yl)ethanone]	–	–	IC50 [1, 5]: 1 to 100 nM; IC50 [2, 5]: 1 to 100 nM
